This is an account of results in the supplement of paper PMC10307832.

Common to all, as to test: relative viability (nuclei count vs DMSO), 5 days (fraction); higher = more cells survive
Compound in the test “Wnt-C59 + Trametinib”: CC1=NC=CC(=C1)C2=CC=C(C=C2)CC(=O)NC3=CC=C(C=C3)C4=CN=CC=C4 [Wnt-C59] + CC(=O)Nc1cccc(-n2c(=O)n(C3CC3)c(=O)c3c(Nc4ccc(I)cc4F)n(C)c(=O)c(C)c32)c1 [Trametinib] (partner 0.02 µM)
The gist of the method: (§1)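 Relative viability divides the nuclei count in treated wells by that in vehicle wells. Lung cancer cell lines were seeded in 1536-well plates, dosed by pin tool the next day, and fixed and stained after 5 days in one step with final 0.05% Triton X-100, 1% formaldehyde and 1 ug/ml Hoechst. Dosing was a single drug or a fixed anchor-drug dose plus five library-drug doses (not always all listed) in √10 steps, and values are medians of duplicate plates imaged at 4×.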

Compound in the test “Wnt-C59 + Luminespib”: CC1=NC=CC(=C1)C2=CC=C(C=C2)CC(=O)NC3=CC=C(C=C3)C4=CN=CC=C4 [Wnt-C59] + CCNC(=O)c1noc(-c2cc(C(C)C)c(O)cc2O)c1-c1ccc(CN2CCOCC2)cc1 [Luminespib] (partner 0.01 µM)
The gist of the method:
as §1

Compound in the test “Wnt-C59 + Decitabine”: CC1=NC=CC(=C1)C2=CC=C(C=C2)CC(=O)NC3=CC=C(C=C3)C4=CN=CC=C4 [Wnt-C59] + Nc1ncn([C@H]2C[C@H](O)[C@@H](CO)O2)c(=O)n1 [Decitabine] (partner 2 µM)
The gist of the method:
as §1

Compound in the test “Lapatinib + Pemetrexed”: CS(=O)(=O)CCNCc1ccc(-c2ccc3ncnc(Nc4ccc(OCc5cccc(F)c5)c(Cl)c4)c3c2)o1 [Lapatinib] + Nc1nc2[nH]cc(CCc3ccc(C(=O)N[C@@H](CCC(=O)O)C(=O)O)cc3)c2c(=O)[nH]1 [Pemetrexed] (partner 0.2 µM)
The procedure, abridged:
as §1

UMC-11: the relative viability came out at 0.654 with Wnt-C59 + Trametinib (first compound 0.001 µM); 0.812 with Wnt-C59 + Trametinib (first compound 0.01 µM); 0.698 with Wnt-C59 + Trametinib (first compound 0.03162 µM); 0.758 in the test with Wnt-C59 + Trametinib (first compound 0.1 µM); 0.932 with Wnt-C59 + Luminespib (first compound 0.001 µM); 1.1 with Wnt-C59 + Luminespib (first compound 0.01 µM). The relative viability worked out at 1.19 in the test with Wnt-C59 + Luminespib (first compound 0.03162 µM); 0.979 with Wnt-C59 + Luminespib (first compound 0.1 µM); 0.572 with Wnt-C59 + Decitabine (first compound 0.001 µM); 0.607 in the test with Wnt-C59 + Decitabine (first compound 0.01 µM); 0.559 in the test with Wnt-C59 + Decitabine (first compound 0.03162 µM); 0.72 with Wnt-C59 + Decitabine (first compound 0.1 µM). Further, the relative viability in the test with Lapatinib + Pemetrexed (first compound 0.02 µM) was 0.803; in the test with Lapatinib + Pemetrexed (first compound 0.06325 µM), 0.7; with Lapatinib + Pemetrexed (first compound 0.2 µM) it was 0.781; in the test with Lapatinib + Pemetrexed (first compound 0.6325 µM) it was 0.795; in the test with Lapatinib + Pemetrexed (first compound 2 µM), 0.753.
